Columns and labels:
Male Wiga Wistar rats = assay: Reversal of LY-404039-induced decrease of palpebral opening in apomorphine-challenged rats (APO LY-404039); type: in vivo, rat; details: Rattus norvegicus, apomorphine challenged rats
Experimental: B) In Vivo Pharmacology 1) Reversal of LY-404039-Induced Decrease of Palpebral Opening in Apomorphine-Challenged Rats.
Male Wiga Wistar rats (Crl:WI; Charles River Germany; 220±40 g) were housed under standard laboratory conditions (21±2° C.; 50-65% relative humidity; light-dark cycle set at 12 h; lights on at 6.00 h) and fasted overnight prior to the start of the experiments (tap water remained available ad libitum). During the test period, they were housed in individual cages. Palpebral opening was scored every 5 min over the first hour after injection of apomorphine (1.0 mg/kg, i.v.) in animals either pretreated or not pretreated with LY-404039 (2.5 mg/kg, s.c.) at 1 h prior to the apomorphine injection. The animals were also pretreated with test compound or solvent at a predefined interval before apomorphine challenge. The score system was: (5) exophthalmos, (4) wide open, (3) open for three-quarters, (2) half open, (1) open for one-quarter, (0) closed. The scores for palpebral opening were cumulated over the 60-min observation period.
In animals receiving apomorphine alone the median palpebral opening is 43 whereas in animals receiving apomorphine and LY-404039, the median palpebral opening is 17.

rats = assay: Reversal of the effect of the mGluR2 PAM JNJ-42153605-induced inhibition of scopolamine-induced hyperlocomotion (SCOP JNJ-42153605); type: in vivo, rat; details: Rattus norvegicus, rats, reversal criterion total distance >1500 cm
How it was run: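 Rats got test compound or vehicle 60 min pre-recording, JNJ-42153605 (20 mg/kg, i.v.) 30 min pre-recording, then scopolamine (0.16 mg/kg, i.v.) just before. Total distance over the first 30 min was video-tracked; all-or-none reversal criterion: total distance >1500 cm.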

Wiga rats = assay: Induction of mydriasis (MYD); type: in vivo; details: Rattus norvegicus, pupil diameter >25 units, 1-3 h post-administration
Experimental: 3) Induction of Mydriasis
The pupil diameter of Wiga rats was measured with a microscopic micrometer (1 unit=1/24 mm). Criteria for drug-induced effects: pupil diameter >25 units for mydriasis (in controls: 1.9%) 1, 2 or 3 h post-administration of the test compound (wherein the maximum pupil diameter over the full 3 h period is reported).

human mGlu2 receptor = molecular target: T1, human mGlu2 receptor (Homo sapiens, UniProt Q14416); assay: [35S]GTPγS binding assay (mGluR2 negative allosteric modulation, glutamate ~EC80 60 μM); type: biochemical; details: for Emax: maximal % inhibition relative to the control glutamate response (EC80 glutamate), read-out: GTPγS-hmGluR2 anGT Emax; for IC50: membranes from CHO cells transfected with human mGlu2 receptor, glutamate ~EC80 (60 μM), pIC50 = −log IC50 (M), read-out: GTPγS-hmGluR2 anGT pIC50 (converted)
T1 construct: expressed in transfected cells; host or cells: CHO cells
T1 sequence (Q14416 19-872): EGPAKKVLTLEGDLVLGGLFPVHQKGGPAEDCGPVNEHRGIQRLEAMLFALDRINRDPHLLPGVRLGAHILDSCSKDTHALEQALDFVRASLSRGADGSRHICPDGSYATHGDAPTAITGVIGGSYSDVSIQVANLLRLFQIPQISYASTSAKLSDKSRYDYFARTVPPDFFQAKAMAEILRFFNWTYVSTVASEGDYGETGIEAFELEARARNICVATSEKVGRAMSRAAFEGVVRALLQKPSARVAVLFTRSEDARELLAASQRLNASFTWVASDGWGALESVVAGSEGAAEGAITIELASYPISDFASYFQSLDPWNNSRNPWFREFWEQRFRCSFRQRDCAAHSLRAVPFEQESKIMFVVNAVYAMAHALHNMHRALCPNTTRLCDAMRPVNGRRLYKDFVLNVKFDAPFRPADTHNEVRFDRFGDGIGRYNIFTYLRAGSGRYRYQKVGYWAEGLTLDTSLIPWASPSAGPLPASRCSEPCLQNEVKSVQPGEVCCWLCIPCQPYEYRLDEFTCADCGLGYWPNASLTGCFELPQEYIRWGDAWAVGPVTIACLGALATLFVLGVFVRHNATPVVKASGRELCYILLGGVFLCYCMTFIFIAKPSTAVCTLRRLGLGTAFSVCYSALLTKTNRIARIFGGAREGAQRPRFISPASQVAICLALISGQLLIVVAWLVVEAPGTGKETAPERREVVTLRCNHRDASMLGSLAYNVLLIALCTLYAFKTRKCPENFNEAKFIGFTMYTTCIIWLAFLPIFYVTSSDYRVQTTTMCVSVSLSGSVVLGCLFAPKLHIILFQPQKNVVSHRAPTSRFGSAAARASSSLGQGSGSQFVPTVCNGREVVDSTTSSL
Experimental: 1) [^35S]GTPγS Binding Assay
[^35S]GTPγS Binding Assay
Total reaction volume was 200 μl. […] Membrane-bound radioactivity was counted in a Topcount.

Male Long Evans rats = assay: V-maze test (PCP-disrupted visual-spatial working memory); type: in vivo, rat; details: Co. No. 8 at doses 0.16 and 0.31 mg/kg p.o. 4 h before test, PCP 0.75 mg/kg s.c. 30 min prior to test
Text: Data are reported as Mean±SEM, n=12/group; ANOVA with LSD-post hoc, p vs. familiar arm: *** p<0.001, *<0.05. In FIG. 1, veh means vehicle and CPD means Co. No. 8
The V-maze-test is a two-trial short term visual-spatial working memory task based on spontaneous exploration of a new and a familiar arm in a 2-arm maze (Embrechts et al. (2013) “Longitudinal characterization of the TauPS2APP mouse model of Alzheimer's disease in a two trial discrimination task of visuo-spatial recognition memory”, 45th European Brain and Behaviour Society Meeting 6-9 Sep. 2013, Munich, Abstract P202).
Male Long Evans rats (Janvier, France, body weight 280 to 295 g) were group housed in enriched individually ventilated cages and habituated to environmental conditions for 5 days. After acclimatization, animals were single housed for 4 days until testing. During this period animals were handled for 2 min per day and received sham dosing once a day for 3 days prior to the test. […] The animal's exploration of each arm was automatically quantified using Ethovision XT 7.0 (Noldus, The Netherlands). […] The time spent in the familiar and new arm respectively during the choice session was recorded for 5 min.
Co. No. 8 was evaluated in rats in a series of dose-response studies evaluating doses from 0.16 to 0.63 mg/kg.

| Compound | melting point [°C] | Emax (human mGlu2 receptor) [%] | IC50 (human mGlu2 receptor) [M] | ED50 (Male Wiga Wistar rats; PO (oral route)) [mg/kg] | ED50 (rats; PO (oral route)) [mg/kg] | ED50 (Wiga rats; PO (oral route)) [mg/kg] | ED50 (Male Wiga Wistar rats; SC (subcutaneous route)) [mg/kg] | ED50 (rats; SC (subcutaneous route)) [mg/kg] | ED50 (Wiga rats; SC (subcutaneous route)) [mg/kg] | exploration of the new vs. the familiar arm in the V-maze (reversal of PCP deficit) (Male Long Evans rats) |
| --- | --- | --- | --- | --- | --- | --- | --- | --- | --- | --- |
| C[C@H]1CN(c2ccc(C(F)(F)F)cc2)C(=O)c2c(NC(=O)c3cccnc3)cnn21 [Co. No. 28] | 152.59 | 107 | 7.59e-09 | 0.78 | 0.39 | 25 | – | – | – | – |
| Cc1cc(C(=O)Nc2cnn3c2C(=O)N(c2ccc(C(F)(F)F)cc2)C[C@@H]3C)cc(C)n1 [Co. No. 93] | 154.26 | 110 | 2.75e-09 | 0.79 | 0.5 | – | – | – | – | – |
| Cc1cc(C(=O)Nc2cnn3c2C(=O)N(c2ccc(Cl)c(Cl)c2)C[C@@H]3C)cc(C)n1 [Co. No. 106] | 186.11 | 108 | 1.07e-09 | > 0.63 | > 0.63 | – | – | – | – | – |
| Cc1ccncc1C(=O)Nc1cnn2c1C(=O)N(c1ccc(C(F)(F)F)c(Cl)c1)C[C@@H]2C [Co. No. 120] | 145.92 | 109 | 1.82e-09 | > 0.63 | > 0.63 | – | – | – | – | – |
| Cc1cc(C(=O)Nc2cnn3c2C(=O)N(c2ccc(Cl)c(Cl)c2)C[C@@H]3C)ccn1 [Co. No. 171] | 108.41 | 104 | 2.29e-09 | > 0.63 | > 0.63 | – | – | – | – | – |

Continued, in another order:

| melting point [°C] | Emax (human mGlu2 receptor) [%] | IC50 (human mGlu2 receptor) [M] | Compound | ED50 (Male Wiga Wistar rats; PO (oral route)) [mg/kg] | ED50 (rats; PO (oral route)) [mg/kg] | ED50 (Wiga rats; PO (oral route)) [mg/kg] | ED50 (Male Wiga Wistar rats; SC (subcutaneous route)) [mg/kg] | ED50 (rats; SC (subcutaneous route)) [mg/kg] | ED50 (Wiga rats; SC (subcutaneous route)) [mg/kg] | exploration of the new vs. the familiar arm in the V-maze (reversal of PCP deficit) (Male Long Evans rats) |
| --- | --- | --- | --- | --- | --- | --- | --- | --- | --- | --- |
| 219.62 | 109 | 1.15e-09 | C[C@H]1CN(c2ccc(C(F)(F)F)c(Cl)c2)C(=O)c2c(NC(=O)c3ccc(N)nc3)cnn21 [Co. No. 1, 6-Amino-N-[(7S)-5-[3-chloro-4-(trifluoromethyl)phenyl]-7-methyl-4-oxo-6,7-dihydropyrazolo[1,5-a]pyrazin-3-yl]pyridine-3-carboxamide] | 0.39 | 0.26 | 14.1 | – | – | – | – |
| 240.39 | 110 | 2.14e-09 | C[C@H]1CN(c2ccc(C(F)(F)F)cc2)C(=O)c2c(NC(=O)c3ccc(N)nc3)cnn21 [Co. No. 8, 6-Amino-N-[(7S)-7-methyl-4-oxo-5-[4-(trifluoromethyl)phenyl]-6,7-dihydropyrazolo[1,5-a]pyrazin-3-yl]pyridine-3-carboxamide] | 0.19 | 0.13 | 8.7 | 0.34 | 0.13 | 7.1 | significantly reversed the PCP deficit |
| 159.96 | 107 | 2.14e-09 | Cc1cc(C(=O)Nc2cnn3c2C(=O)N(c2ccc(C(F)(F)F)c(Cl)c2)C[C@@H]3C)ccn1 [Co. No. 12] | 0.42 | 0.32 | 21.5 | – | – | – | – |
| 207.25 | 109 | 2.63e-09 | C[C@H]1CN(c2ccc(C(F)(F)F)c(F)c2)C(=O)c2c(NC(=O)c3ccc(N)nc3)cnn21 [Co. No. 13] | 0.2 | 0.32 | – | – | – | – | – |
| 160.38 | 107 | 1.12e-09 | Cc1cncc(C(=O)Nc2cnn3c2C(=O)N(c2ccc(C(F)(F)F)c(Cl)c2)C[C@@H]3C)c1 [Co. No. 101, N-[(7S)-5-[3-chloro-4-(trifluoromethyl)phenyl]-7-methyl-4-oxo-6,7-dihydropyrazolo[1,5-a]pyrazin-3-yl]-5-methyl-pyridine-3-carboxamide] | 0.18 | > 0.63 | 5 | – | – | – | – |
| 120.33 | 105 | 4.57e-09 | Cc1cc(N2C[C@H](C)n3ncc(NC(=O)c4cccnc4)c3C2=O)ccc1C(F)(F)F [Co. No. 145] | 0.5 | > 0.63 | 6.6 | – | – | – | – |
| 166.06 | 105 | 8.51e-09 | C[C@H]1CN(c2ccc(C(F)(F)F)c(F)c2)C(=O)c2c(NC(=O)c3cccnc3)cnn21 [Co. No. 148] | > 0.63 | > 0.63 | – | – | – | – | – |
